Assay results as given in patent publication US5990170A, “Therapeutic use of mono and bicarboxylic acid amides active at the peripheral cannabinoid receptor” (Lifegroup S.p.A., priority 1994, dated 1999).
“Also recorded” adds a separate entry of the source. Like-named read-outs stand apart in the source and are kept apart here.

How the values were obtained:
RBL-2H3 cells = experiment: Inhibition of 3H-serotonin release induced by ADNP/DNP-HSA immunogenic stimulation in RBL-2H3 cells; assay type: cell-based, rat; conditions: for inhibition at 12.5 µM: Rattus norvegicus, RBL-2H3, read-out: 3H-serotonin net release inhibition (%), 12.5 μM
[1] = biological target: T1, CB2 receptor (RBL-2H3 cell membranes) (Rattus norvegicus, UniProt Q9QZN9); experiment: Competitive displacement of 3H-WIN 55,212-2 binding to RBL-2H3 cell membranes; conditions: competitor 10 μM; 0.1% ethanol
T1 construct: Preparation of Plasmatic Membranes of RBL-2H3 Cells; endogenous in cells; host or cells: RBL-2H3 (rat basophilic leukemia) cell membranes
T1 sequence (Q9QZN9 1-360): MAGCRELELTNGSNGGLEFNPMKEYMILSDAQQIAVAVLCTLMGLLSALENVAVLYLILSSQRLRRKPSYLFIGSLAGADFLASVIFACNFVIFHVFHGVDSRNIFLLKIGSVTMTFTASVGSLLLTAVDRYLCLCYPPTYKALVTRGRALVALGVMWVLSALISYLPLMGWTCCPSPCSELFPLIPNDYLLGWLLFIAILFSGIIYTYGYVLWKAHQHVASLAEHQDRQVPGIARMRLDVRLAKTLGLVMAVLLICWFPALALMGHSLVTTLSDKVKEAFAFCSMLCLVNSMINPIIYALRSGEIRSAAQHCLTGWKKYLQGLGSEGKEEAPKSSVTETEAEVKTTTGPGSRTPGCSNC

CB1 central receptor = conditions: result in words; cited from earlier work
[2] = biological target: T1, CB2 receptor (RBL-2H3 cell membranes); experiment: Competitive displacement of 3H-WIN 55,212-2 binding to RBL-2H3 cell membranes
Protocol: RBL-2H3 cells (100×10^6), frozen at -80° C., were thawed with 4 ml of Tris-HCl buffer solution 50 mM (pH 7.4), added with 0.25% w/v of Tripsin inhibitor, TYPE II-S: SOY BEAN® (distributed by Sigma). The cells were resuspended in the buffer and homogenized. The homogenate was centrifuged at 1500×g at 4° C. for 10 min. The supernatant obtained was collected and the precipitate was resuspended in 4 ml of the previous buffer. The resuspended precipitate was homogenized and centrifuged again at 1500×g at 4° C. for 5-10 min. The resulting supernatant was combined to the supernatant previously obtained and centrifuged at 5000×g for 10 min. After centrifugation, the supernatant was collected and further centrifuged at 40,000×g at 4° C. for 30 min. The resulting precipitate was resuspended in 0.5 ml of the buffer solution described above, with addition of 1% Bovine Serum Albumin fatty acid free. The obtained suspension was centrifuged at 40,000×g at 4° C. for 30 min. The resulting precipitate was collected and resuspended in buffer solution containing 50 mM Tris HCl, 1 mM Tris-EDTA, 3 mM MgCl2, pH 7.4, in order to obtain a proteic concentration of 1 μg/μl approx. This preparation may be used fresh, or frozen at -80° C. and utilized within few days.
Non-radioactive WIN 55,212-2 (1 μM) was used to inhibit specific binding. […] The competitors were added to the binding mixture prior to the labelled ligand. In both cases, for an evaluation of the reference specific binding, ethanol and DMSO were added at the same final concentration to the total binding and to the aspecific one, also in the absence of competitors.
WIN 55,212-2 was used at a concentration of 3 μM, whereas the other compounds were used at a concentration of 10 μM.
Incubation was carried out in the presence of 1% DMSO. The values of Inhibitory Concentration 50 (IC50) are expressed as means ± SEM, after the number of experiments reported hereinbelow.

## CCCCC/C=C\C/C=C\C/C=C\C/C=C\CCCC(=O)NCCO [anandamide, arachidonylethanolamide, reference compound]
RBL-2H3 cells; + WIN 55,212-2 (30 μm) (Table 6)
  inhibition at 12.5 µM: 15%
RBL-2H3 cells; - WIN (Table 6)
  inhibition at 12.5 µM: 7%
RBL-2H3 cells; concentration not given, 0.1% DMSO and 0.1% ethanol (Table 3), 15 min
  3H-serotonin net release (%): 100%
RBL-2H3 cells; result in words
  antagonism of the protective effects of cannabinoids: competitive antagonism on the peripheral receptor
  functional effect following receptor activation (serotonin release): unable to affect serotonin release; also recorded: is not able to induce biological effects
[1]
  Specific binding: 99
CB1 central receptor
  functional activation of CB1 central receptor: can functionally activate CB1 central receptor
[2]; read-out: % Displacement
  inhibition at 10 µM: 95%
[2]; result in words
  binding to the peripheral receptor: able to bind to the receptor and to compete; also recorded: having binding affinity for the peripheral receptor
